Data on 15 compounds can be found in patent US12226424B2, “Target protein degradation compounds, their anti-tumor use, their intermediates and use of intermediates” (ShanghaiTech University, priority 2018, dated 2025).

Experiment [1] concerns the target T1, ALK protein (Homo sapiens, UniProt Q9UM73). The experiment can be described thus: Western-blot half degradation concentration (DC50) of ALK protein in H3122 cells. As to conditions: 24 h drug treatment, read-out: DC50 (nM)/ H3122 cell line. The format is cell-based. Here is the method:
(§1) ALK-positive SR cells (human large cell immunoblastic lymphoma) were purchased from the American Type Culture Collection (ATCC); H3122 cells (human non-small cell lung cancer) were from the Shanghai University of Science and Technology Lin Haifan's research group.
(§2) The cells used in this present disclosure were cultured in a 37° C. incubator containing 5% CO2.
(§3) DC50 (drug concentration corresponding to protein degradation to 50%) calculation: according to the gray value of the corresponding Western blotting band after drug treatment, fitting the relationship curve between drug concentration and gray value to calculate the drug concentration range corresponding to half of the gray value.
Target sequence in this assay (Q9UM73 with tags, fused parts or gaps): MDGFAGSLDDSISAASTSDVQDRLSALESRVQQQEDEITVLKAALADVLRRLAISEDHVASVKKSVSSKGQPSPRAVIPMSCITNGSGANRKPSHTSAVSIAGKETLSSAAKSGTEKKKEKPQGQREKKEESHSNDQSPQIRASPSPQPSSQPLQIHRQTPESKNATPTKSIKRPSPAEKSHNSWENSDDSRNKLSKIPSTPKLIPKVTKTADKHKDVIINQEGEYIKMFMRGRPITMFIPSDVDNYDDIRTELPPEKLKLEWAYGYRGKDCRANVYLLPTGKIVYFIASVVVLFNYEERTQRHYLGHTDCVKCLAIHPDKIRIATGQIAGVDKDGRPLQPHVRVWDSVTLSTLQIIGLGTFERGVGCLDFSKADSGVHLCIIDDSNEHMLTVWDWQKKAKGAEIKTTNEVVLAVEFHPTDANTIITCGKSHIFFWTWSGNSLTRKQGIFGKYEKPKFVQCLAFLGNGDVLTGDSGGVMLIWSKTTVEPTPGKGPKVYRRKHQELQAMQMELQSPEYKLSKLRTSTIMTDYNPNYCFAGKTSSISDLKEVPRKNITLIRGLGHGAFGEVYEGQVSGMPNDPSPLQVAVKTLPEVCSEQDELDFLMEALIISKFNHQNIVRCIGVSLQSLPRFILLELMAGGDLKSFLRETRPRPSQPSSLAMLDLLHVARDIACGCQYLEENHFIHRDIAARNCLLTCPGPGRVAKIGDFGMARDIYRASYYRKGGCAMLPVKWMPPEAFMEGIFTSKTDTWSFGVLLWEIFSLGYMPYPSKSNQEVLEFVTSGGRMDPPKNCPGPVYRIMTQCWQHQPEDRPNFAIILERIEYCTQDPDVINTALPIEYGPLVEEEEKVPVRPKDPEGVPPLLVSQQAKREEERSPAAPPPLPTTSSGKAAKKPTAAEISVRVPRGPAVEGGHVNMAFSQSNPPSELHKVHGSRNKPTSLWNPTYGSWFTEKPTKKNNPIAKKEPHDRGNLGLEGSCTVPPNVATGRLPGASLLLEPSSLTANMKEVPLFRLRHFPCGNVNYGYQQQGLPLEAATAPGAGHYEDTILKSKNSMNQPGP

Another experiment relates to SR cells. As to the kind of experiment: Half inhibitory concentration (IC50) on ALK-positive SR cell proliferation (CCK-8). As to conditions: Homo sapiens; SR cells, 72 h drug treatment, CCK-8; read-out: IC50 (nM)/ SR cell line. The experiment is classed as cell-based. A digest of the protocol:
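SR cells seeded at 10,000 cells/well in RPMI1640 and treated with PROTAD compounds at 10 concentrations (top 10 μM, 5-fold dilutions) for 72 h at 37° C, 5% CO2. Viability read by CCK-8 (2 h) at OD450; DMSO as negative control.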

Experiment [2] deals with T1, ALK protein. As to the kind of experiment: Western-blot half degradation concentration (DC50) of ALK protein in SR cells. The experiment is classed as cell-based. As to conditions: 24 h drug treatment; for DC50: read-out: DC50 (nM)/ SR cell line. The method, then:
as §1, §2, §3
Target sequence in this assay (Q9UM73 with tags, fused parts or gaps): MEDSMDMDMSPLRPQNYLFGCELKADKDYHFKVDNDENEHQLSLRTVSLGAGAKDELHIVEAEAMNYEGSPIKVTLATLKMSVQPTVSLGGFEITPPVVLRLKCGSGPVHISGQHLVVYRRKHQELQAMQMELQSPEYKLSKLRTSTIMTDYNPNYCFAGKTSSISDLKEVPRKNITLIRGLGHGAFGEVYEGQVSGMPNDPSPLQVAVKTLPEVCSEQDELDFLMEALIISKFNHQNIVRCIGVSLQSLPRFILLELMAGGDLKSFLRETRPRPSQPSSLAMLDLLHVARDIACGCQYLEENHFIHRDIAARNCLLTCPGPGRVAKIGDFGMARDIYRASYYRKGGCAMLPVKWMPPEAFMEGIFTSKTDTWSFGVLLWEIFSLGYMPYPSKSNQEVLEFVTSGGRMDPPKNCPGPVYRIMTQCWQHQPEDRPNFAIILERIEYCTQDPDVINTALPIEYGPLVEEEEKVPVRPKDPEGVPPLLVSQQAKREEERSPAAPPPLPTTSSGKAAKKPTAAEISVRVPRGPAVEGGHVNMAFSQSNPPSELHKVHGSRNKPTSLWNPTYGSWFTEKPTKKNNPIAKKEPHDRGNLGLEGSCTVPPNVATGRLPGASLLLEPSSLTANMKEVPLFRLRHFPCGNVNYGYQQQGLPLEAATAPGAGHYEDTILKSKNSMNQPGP

The test system of experiment [3] is K562 cells (BCR-ABL positive). As to the kind of experiment: Half inhibitory concentration (IC50) on tumor cells, CCK-8, K562. The conditions noted are these: Homo sapiens, K562, 48 h, read-out: IC50 (nM)/K562 cell line.
Experimental: Determination of Half Inhibitory Concentration (IC50) of PROTAD Compounds on Tumor Cells
K562 cells were seeded in 100 μL of RPMI1640 complete medium at a density of 20,000 cells/well. 100 μL of the inoculated cells were treated with 100 μL diluted PROTAD compound of the present disclosure to be tested at 9 successively decreasing concentrations (starting at the highest concentration of 10 μM; 3-fold serial dilutions). After the cells were treated with the tested drugs for 48 hours, the cell viability determination was performed in accordance with CCK-8 reagent operating instructions. The negative control was DMSO, and positive control was a commercial inhibitor. After CCK-8 treatment for 2 h, the value of O.D.450 was measured using a microplate reader.
The target in a further experiment is BCR-ABL (Homo sapiens, UniProt P00519). As to the kind of experiment: Western-blot half-degradation concentration (DC50) / degradation of BCR-ABL in K562 cells. As to conditions: read-out: DC50 (nM)/K562 cell line, BCR-ABL protein degradation, 24 hours, Western-blot.
BCR-ABL, sequence (P00519 with tags, fused parts or gaps): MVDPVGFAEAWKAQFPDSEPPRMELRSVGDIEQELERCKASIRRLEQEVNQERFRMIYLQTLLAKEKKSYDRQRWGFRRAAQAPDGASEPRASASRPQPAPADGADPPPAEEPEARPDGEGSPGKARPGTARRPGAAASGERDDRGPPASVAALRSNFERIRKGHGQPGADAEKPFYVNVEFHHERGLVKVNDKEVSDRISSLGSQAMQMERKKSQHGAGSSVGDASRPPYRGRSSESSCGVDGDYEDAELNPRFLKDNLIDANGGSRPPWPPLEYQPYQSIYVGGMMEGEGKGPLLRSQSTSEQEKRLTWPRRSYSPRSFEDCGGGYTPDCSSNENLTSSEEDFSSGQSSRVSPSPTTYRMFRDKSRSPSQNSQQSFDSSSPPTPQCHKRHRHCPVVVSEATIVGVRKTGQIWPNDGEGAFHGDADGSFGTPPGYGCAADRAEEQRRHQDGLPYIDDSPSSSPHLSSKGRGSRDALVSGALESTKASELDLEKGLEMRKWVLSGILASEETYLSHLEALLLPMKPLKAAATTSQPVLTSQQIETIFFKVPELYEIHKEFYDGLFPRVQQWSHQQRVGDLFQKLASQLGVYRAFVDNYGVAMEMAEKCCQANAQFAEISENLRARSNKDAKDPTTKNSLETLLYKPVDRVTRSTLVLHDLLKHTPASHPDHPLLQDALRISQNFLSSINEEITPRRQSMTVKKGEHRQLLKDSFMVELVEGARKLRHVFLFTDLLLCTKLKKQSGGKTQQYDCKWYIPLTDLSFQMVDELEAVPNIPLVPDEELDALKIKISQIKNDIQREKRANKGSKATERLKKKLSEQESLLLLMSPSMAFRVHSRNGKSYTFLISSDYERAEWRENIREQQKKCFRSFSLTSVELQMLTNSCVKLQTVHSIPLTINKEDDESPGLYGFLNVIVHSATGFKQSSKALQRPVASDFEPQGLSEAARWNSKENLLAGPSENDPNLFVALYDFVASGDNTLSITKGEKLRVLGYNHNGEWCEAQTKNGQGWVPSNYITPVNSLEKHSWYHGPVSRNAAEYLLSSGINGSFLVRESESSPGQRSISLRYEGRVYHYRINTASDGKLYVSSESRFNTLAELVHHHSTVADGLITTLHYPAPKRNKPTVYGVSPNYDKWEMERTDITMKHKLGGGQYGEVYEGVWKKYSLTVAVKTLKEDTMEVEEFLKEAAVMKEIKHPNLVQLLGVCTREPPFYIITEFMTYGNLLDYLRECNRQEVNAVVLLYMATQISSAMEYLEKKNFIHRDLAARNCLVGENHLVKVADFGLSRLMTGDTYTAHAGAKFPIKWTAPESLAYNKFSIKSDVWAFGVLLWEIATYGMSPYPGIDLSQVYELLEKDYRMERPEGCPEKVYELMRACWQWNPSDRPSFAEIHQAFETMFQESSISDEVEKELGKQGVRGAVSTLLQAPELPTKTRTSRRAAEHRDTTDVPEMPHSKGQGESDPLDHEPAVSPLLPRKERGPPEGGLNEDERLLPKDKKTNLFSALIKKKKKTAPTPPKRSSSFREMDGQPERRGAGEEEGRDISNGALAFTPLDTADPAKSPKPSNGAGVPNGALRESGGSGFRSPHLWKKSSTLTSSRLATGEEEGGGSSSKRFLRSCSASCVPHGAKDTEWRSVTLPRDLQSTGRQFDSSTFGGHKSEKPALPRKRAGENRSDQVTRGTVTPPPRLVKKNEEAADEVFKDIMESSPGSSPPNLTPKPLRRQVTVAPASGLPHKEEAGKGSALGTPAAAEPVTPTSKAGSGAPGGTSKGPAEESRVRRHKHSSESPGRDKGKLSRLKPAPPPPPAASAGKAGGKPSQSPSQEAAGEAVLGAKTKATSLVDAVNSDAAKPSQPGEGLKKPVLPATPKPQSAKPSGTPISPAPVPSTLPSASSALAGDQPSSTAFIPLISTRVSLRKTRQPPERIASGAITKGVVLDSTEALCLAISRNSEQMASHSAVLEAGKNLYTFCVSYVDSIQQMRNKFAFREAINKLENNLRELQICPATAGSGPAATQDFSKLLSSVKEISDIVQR

Take `COc1cc(N2CCC(N3CCN(C(=O)CSc4cccc5c4C(=O)N(C4CCC(=O)NC4=O)C5=O)CC3)CC2)ccc1Nc1ncc(Cl)c(Nc2ccccc2P(C)(C)=O)n1` (stereo not drawn) [SIAIS164062, 4-((2-(4-(1-(4-((5-chloro-4-((2-(dimethylphosphoryl)phenyl)amino)pyrimidin-2-yl)amino)-3-methoxyphenyl)piperidin-4-yl)piperazin-1-yl)-2-oxoethyl)thio)-2-(2,6-dioxopiperidin-3-yl)isoindoline-1,3-dione]: the DC50 at ALK protein [1] is 13 nM; at ALK protein [2], 6 nM. In addition, in the experiment with SR cells, the IC50 came out at 11.6 ± 6.2 nM.

As to `COc1cc(N2CCC(N3CCN(C(=O)CCSc4cccc5c4C(=O)N(C4CCC(=O)NC4=O)C5=O)CC3)CC2)ccc1Nc1ncc(Cl)c(Nc2ccccc2P(C)(C)=O)n1` (stereo not drawn) [SIAIS164063, 4-((3-(4-(1-(4-((5-chloro-4-((2-(dimethylphosphoryl)phenyl)amino)pyrimidin-2-yl)amino)-3-methoxyphenyl)piperidin-4-yl)piperazin-1-yl)-3-oxopropyl)thio)-2-(2,6-dioxopiperidin-3-yl)isoindoline-1,3-dione], the DC50 on ALK protein [1] and on ALK protein [2] was 500 nM each time. For the same compound, the IC50 in the experiment with SR cells was 15.7 ± 9.8 nM.

In the case of `COc1cc(N2CCC(N3CCN(C(=O)CCCSc4cccc5c4C(=O)N(C4CCC(=O)NC4=O)C5=O)CC3)CC2)ccc1Nc1ncc(Cl)c(Nc2ccccc2P(C)(C)=O)n1` (stereo not drawn) [SIAIS164064, 4-((4-(4-(1-(4-((5-chloro-4-((2-(dimethylphosphoryl)phenyl)amino)pyrimidin-2-yl)amino)-3-methoxyphenyl)piperidin-4-yl)piperazin-1-yl)-4-oxobutyl)thio)-2-(2,6-dioxopiperidin-3-yl)isoindoline-1,3-dione], the DC50 amounted to 49 nM at ALK protein [1] and 1.1 nM on ALK protein [2]. In addition, the IC50 in the experiment on SR cells was 4.4 ± 2.5 nM.

`COc1cc(N2CCC(N3CCN(C(=O)CCCCCSc4cccc5c4C(=O)N(C4CCC(=O)NC4=O)C5=O)CC3)CC2)ccc1Nc1ncc(Cl)c(Nc2ccccc2P(C)(C)=O)n1` (stereo not drawn) [SIAIS164065, 4-((6-(4-(1-(4-((5-chloro-4-((2-(dimethylphosphoryl)phenyl)amino)pyrimidin-2-yl)amino)-3-methoxyphenyl)piperidin-4-yl)piperazin-1-yl)-6-oxohexyl)thio)-2-(2,6-dioxopiperidin-3-yl)isoindoline-1,3-dione]: the DC50 stood at 173 nM on ALK protein [1] and 5.2 nM on ALK protein [2]. Besides, in the experiment with SR cells, the IC50 came out at 2.9 ± 2.7 nM.

Take `COc1cc(N2CCC(N3CCN(C(=O)CCCCSc4cccc5c4C(=O)N(C4CCC(=O)NC4=O)C5=O)CC3)CC2)ccc1Nc1ncc(Cl)c(Nc2ccccc2P(C)(C)=O)n1` (stereo not drawn) [SIAIS164066, 4-((5-(4-(1-(4-((5-chloro-4-((2-(dimethylphosphoryl)phenyl)amino)pyrimidin-2-yl)amino)-3-methoxyphenyl)piperidin-4-yl)piperazin-1-yl)-5-oxopentyl)thio)-2-(2,6-dioxopiperidin-3-yl)isoindoline-1,3-dione]: the DC50 on ALK protein [1] is 11 nM; on ALK protein [2] it was 5.6 nM. In addition, the IC50 in the experiment with SR cells worked out at 4.2 ± 2.9 nM.

In the case of `COc1cc(N2CCC(N3CCN(C(=O)CCCCCCSc4cccc5c4C(=O)N(C4CCC(=O)NC4=O)C5=O)CC3)CC2)ccc1Nc1ncc(Cl)c(Nc2ccccc2P(C)(C)=O)n1` (stereo not drawn) [SIAIS164067, 4-((7-(4-(1-(4-((5-chloro-4-((2-(dimethylphosphoryl)phenyl)amino)pyrimidin-2-yl)amino)-3-methoxyphenyl)piperidin-4-yl)piperazin-1-yl)-7-oxoheptyl)thio)-2-(2,6-dioxopiperidin-3-yl)isoindoline-1,3-dione], the DC50 on ALK protein [1] was 11 nM; on ALK protein [2], 4.1 nM. The IC50 in the experiment with SR cells was 5.7 ± 3.9 nM.

As to `Cc1nc(Nc2ncc(C(=O)Nc3c(C)cccc3Cl)s2)cc(N2CCN(CCSc3cccc4c3CN(C3CCC(=O)NC3=O)C4=O)CC2)n1` (stereo not drawn) [SIAIS171166, N-(2-chloro-6-methylphenyl)-2-((6-(4-(2-((2-(2,6-dioxopiperidin-3-yl)-1-oxoisoindolin-4-yl)thio)ethyl)piperazin-1-yl)-2-methylpyrimidin-4-yl)amino)thiazole-5-carboxamide], in experiment [3], the IC50 turned out to be 0.51 nM. Also, at BCR-ABL, the DC50 was under 1 nM.

In the case of `Cc1nc(Nc2ncc(C(=O)Nc3c(C)cccc3Cl)s2)cc(N2CCN(CCCSc3cccc4c3C(=O)N(C3CCC(=O)NC3=O)C4=O)CC2)n1` (stereo not drawn) [SIAIS172106, N-(2-chloro-6-methylphenyl)-2-((6-(4-(3-((2-(2,6-dioxopiperidin-3-yl)-1,3-dioxoisoindolin-4-yl)thio)propyl)piperazin-1-yl)-2-methylpyrimidin-4-yl)amino)thiazole-5-carboxamide], in experiment [3], the IC50 stood at 0.83 nM. In addition, on BCR-ABL, the DC50 is under 3 nM.

For the compound `COc1cc(N2CCC(N3CCN(C(=O)CSc4cccc5c4CN(C4CCC(=O)NC4=O)C5=O)CC3)CC2)ccc1Nc1ncc(Cl)c(Nc2ccccc2P(C)(C)=O)n1` (stereo not drawn) [SIAIS219067, 3-(4-((2-(4-(1-(4-((5-chloro-4-((2-(dimethylphosphoryl)phenyl)amino)pyrimidin-2-yl)amino)-3-methoxyphenyl)piperidin-4-yl)piperazin-1-yl)-2-oxoethyl)thio)-1-oxoisoindolin-2-yl)piperidine-2,6-dione], the IC50 in the experiment with SR cells came out at 2.4 ± 1.4 nM. Further, the DC50 on ALK protein [2] was 0.1 to 10 nM.

For the compound `COc1cc(N2CCC(N3CCN(C(=O)CCSc4cccc5c4CN(C4CCC(=O)NC4=O)C5=O)CC3)CC2)ccc1Nc1ncc(Cl)c(Nc2ccccc2P(C)(C)=O)n1` (stereo not drawn) [SIAIS219068, 3-(4-((3-(4-(1-(4-((5-chloro-4-((2-(dimethylphosphoryl)phenyl)amino)pyrimidin-2-yl)amino)-3-methoxyphenyl)piperidin-4-yl)piperazin-1-yl)-3-oxopropyl)thio)-1-oxoisoindolin-2-yl)piperidine-2,6-dione], the IC50 in the experiment with SR cells is 1.7 ± 0.8 nM. Also, the DC50 on ALK protein [2] was 1 to 10 nM.

In the case of `COc1cc(N2CCC(N3CCN(C(=O)CCCSc4cccc5c4CN(C4CCC(=O)NC4=O)C5=O)CC3)CC2)ccc1Nc1ncc(Cl)c(Nc2ccccc2P(C)(C)=O)n1` (stereo not drawn) [SIAIS219069, 3-(4-((4-(4-(1-(4-((5-chloro-4-((2-(dimethylphosphoryl)phenyl)amino)pyrimidin-2-yl)amino)-3-methoxyphenyl)piperidin-4-yl)piperazin-1-yl)-4-oxobutyl)thio)-1-oxoisoindolin-2-yl)piperidine-2,6-dione], the IC50 in the experiment on SR cells is 0.7 ± 0.3 nM. For the same compound, the DC50 on ALK protein [2] lay within 0.1 to 10 nM.

With `COc1cc(N2CCC(N3CCN(C(=O)CCCCSc4cccc5c4CN(C4CCC(=O)NC4=O)C5=O)CC3)CC2)ccc1Nc1ncc(Cl)c(Nc2ccccc2P(C)(C)=O)n1` (stereo not drawn) [SIAIS219070, 3-(4-((5-(4-(1-(4-((5-chloro-4-((2-(dimethylphosphoryl)phenyl)amino)pyrimidin-2-yl)amino)-3-methoxyphenyl)piperidin-4-yl)piperazin-1-yl)-5-oxopentyl)thio)-1-oxoisoindolin-2-yl)piperidine-2,6-dione], in the experiment with SR cells, the IC50 stood at 0.5 ± 0.3 nM. Further, the DC50 on ALK protein [2] was 0.1 to 10 nM.

Consider `COc1cc(N2CCC(N3CCN(C(=O)CCCCCSc4cccc5c4CN(C4CCC(=O)NC4=O)C5=O)CC3)CC2)ccc1Nc1ncc(Cl)c(Nc2ccccc2P(C)(C)=O)n1` (stereo not drawn) [SIAIS219071, 3-(4-((6-(4-(1-(4-((5-chloro-4-((2-(dimethylphosphoryl)phenyl)amino)pyrimidin-2-yl)amino)-3-methoxyphenyl)piperidin-4-yl)piperazin-1-yl)-6-oxohexyl)thio)-1-oxoisoindolin-2-yl)piperidine-2,6-dione], for which the IC50 with SR cells is 0.6 ± 0.4 nM. The “DC50 (nM)/ SR cell line” value on ALK protein [2] was 0.01~10 nM.

Consider `COc1cc(N2CCC(N3CCN(C(=O)CCCCCCSc4cccc5c4CN(C4CCC(=O)NC4=O)C5=O)CC3)CC2)ccc1Nc1ncc(Cl)c(Nc2ccccc2P(C)(C)=O)n1` (stereo not drawn) [SIAIS219072, 3-(4-((7-(4-(1-(4-((5-chloro-4-((2-(dimethylphosphoryl)phenyl)amino)pyrimidin-2-yl)amino)-3-methoxyphenyl)piperidin-4-yl)piperazin-1-yl)-7-oxoheptyl)thio)-1-oxoisoindolin-2-yl)piperidine-2,6-dione], for which the IC50 with SR cells was 0.8 ± 0.5 nM. The DC50 on ALK protein [2] fell in the range of 0.1 to 10 nM.

Take `COc1cc(N2CCC(N3CCN(CCCCCCSc4cccc5c4CN(C4CCC(=O)NC4=O)C5=O)CC3)CC2)ccc1Nc1ncc(Cl)c(Nc2ccccc2P(C)(C)=O)n1` (stereo not drawn) [SIAIS219098, 3-(4-((6-(4-(1-(4-((5-chloro-4-((2-(dimethylphosphoryl)phenyl)amino)pyrimidin-2-yl)amino)-3-methoxyphenyl)piperidin-4-yl)piperazin-1-yl)hexyl)thio)-1-oxoisoindolin-2-yl)piperidine-2,6-dione]: in the experiment on SR cells, the IC50 came out at 0.7 ± 0.2 nM. Besides, the DC50 at ALK protein [2] was 0.1 to 1 nM.
